# Measured values from patent US10231956B2, “3-(1H-pyrrolo[3,2-C]pyridin-2-YL)-1 H-pyrazolo[4,3-B]pyridines and therapeutic uses thereof” (Samumed, LLC, priority 2015, dated 2019).
# Legend:
# [1] = system: primary human fibroblasts derived from IPF patients (LL29 cells); experiment: Inhibition of fibrotic process: αSMA staining in TGF-β1 treated LL29 fibroblasts; format: cell-based; conditions: Fibroblast; for EC50: 96 h, TGF-β1 20 ng/mL, 4 days, % cells positive for αSMA; for inhibition at 10 µM: given for EC50 >10 μM, TGF-β1, αSMA, read-out: percent inhibition at 10 μM
# In short: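 LL29 cells at 1,500/well in F12 with 1% FBS, compounds at 1 μM–1.87 nM (11-point, 0.1% DMSO), TGF-β1 20 ng/mL added 1 h later, 4 days at 37 °C. SYTOX-positive cells excluded; % αSMA-positive cells by immunofluorescence imaging, normalized to TGF-β1/DMSO wells, triplicates fitted for EC50; above 10 μM, % inhibition at 10 μM given.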
# IL-6 = IL-6 inhibition in LPS-stimulated THP-1 cells (HTRF); format: cell-based; conditions: Homo sapiens; for EC50: LPS 500 ng/mL, 22 hours, IL6 HTRF; for inhibition at 10 µM: given for EC50 >10 μM, LPS, IL6, 10 μM, read-out: percent inhibition at 10 μM
Compound,EC50 [1],EC50 (IL-6),inhibition at 10 µM (IL-6),inhibition at 10 µM [1]
"CN(C)Cc1cncc(-c2ccc3[nH]nc(-c4cc5c(-c6ccccc6F)nccc5[nH]4)c3n2)c1 [Compound 69, 1-(5-(3-(4-(2-Fluorophenyl)-1H-pyrrolo[3,2-c]pyridin-2-yl)-1H-pyrazolo [4,3-b]pyridin-5-yl)pyridin-3-yl)-N,N-dimethylmethanamine]",626 nM,1150 nM,–,–
"c1cncc(-c2ccc3[nH]nc(-c4cc5c(N6CCCCC6)nccc5[nH]4)c3n2)c1 [Compound 172, 3-(4-(Piperidin-1-yl)-1H-pyrrolo[3,2-c]pyridin-2-yl)-5-(pyridin-3-yl)-1H-pyrazolo[4,3-b]pyridine]",89 nM,84 nM,–,–
"c1cncc(-c2ccc3[nH]nc(-c4cc5cnccc5[nH]4)c3n2)c1 [Compound 256, 5-(Pyridin-3-yl)-3-(1H-pyrrolo[3,2-c]pyridin-2-yl)-1H-pyrazolo[4,3-b]pyridine]",243 nM,73 nM,–,–
"Nc1cncc(-c2ccc3[nH]nc(-c4cc5c(-c6ccncc6)nccc5[nH]4)c3n2)c1 [Compound 115, 5-(3-(4-(Pyridin-4-yl)-1H-pyrrolo[3,2-c]pyridin-2-yl)-1H-pyrazolo[4,3-b]pyridin-5-yl)pyridin-3-amine]",436 nM,421 nM,–,–
"CN1CCN(c2nccc3[nH]c(-c4n[nH]c5ccc(-c6cncc(NC(=O)c7ccccc7)c6)nc45)cc23)CC1 [Compound 235, N-(5-(3-(4-(4-Methylpiperazin-1l-yl)-1H-pyrrolo[3,2-c]pyridin-2-yl)-1H-pyrazolo[4,3-b]pyridin-5-yl)pyridin-3-yl)benzamide]",2250 nM,1000 nM,–,–
"O=C(Nc1cncc(-c2ccc3[nH]nc(-c4cc5c(-c6cccc(F)c6)nccc5[nH]4)c3n2)c1)C1CCCCC1 [Compound 23, N-(5-(3-(4-(3-Fluorophenyl)-1H-pyrrolo[3,2-c]pyridin-2-yl)-1H-pyrazolo [4,3-b]pyridin-5-yl)pyridin-3-yl)cyclohexanecarboxamide]",463 nM,> 10000 nM,10.6%,–
"CS(=O)(=O)NCc1cc(F)cc(-c2nccc3[nH]c(-c4n[nH]c5ccc(-c6cncnc6)nc45)cc23)c1 [Compound 503, N-(3-Fluoro-5-(2-(5-(pyrimidin-5-yl)-1H-pyrazolo[4,3-b]pyridin-3-yl)-1H-pyrrolo [3,2-c]pyridin-4-yl)benzyl)methanesulfonamide]",> 10000 nM,> 10000 nM,7.6%,0%
"CCCCC(=O)Nc1cncc(-c2ccc3[nH]nc(-c4cc5c(N6CCCCC6)nccc5[nH]4)c3n2)c1 [Compound 187, N-(5-(3-(4-(Piperidin-1-yl)-1H-pyrrolo[3,2-c]pyridin-2-yl)-1H-pyrazolo[4,3-b]pyridin-5-yl)pyridin-3-yl)pentanamide]",2220 nM,102 nM,–,–
"c1cc2[nH]c(-c3n[nH]c4ccc(-c5cncc(OC6CCCCC6)c5)nc34)cc2c(N2CCCCC2)n1 [Compound 607, 5-(5-(Cyclohexyloxy)pyridin-3-yl)-3-(4-(piperidin-1-yl)-1H-pyrrolo[3,2-c]pyridin-2-yl)-1H-pyrazolo[4,3-b]pyridine]",> 10000 nM,1790 nM,–,25.4%
"CS(=O)(=O)NCc1cc(F)cc(-c2nccc3[nH]c(-c4n[nH]c5ccc(-c6cncc(NC(=O)C7CCCC7)c6)nc45)cc23)c1 [Compound 498, N-(5-(3-(4-(3-Fluoro-5-(methylsulfonamidomethyl)phenyl)-1H-pyrrolo[3,2-c]pyridin-2-yl)-1H-pyrazolo[4,3-b]pyridin-5-yl)pyridin-3-yl)cyclopentanecarboxamide]",> 10000 nM,162 nM,–,34.8%
"c1cc2[nH]c(-c3n[nH]c4ccc(-c5cncnc5)nc34)cc2cn1 [Compound 279, 5-(Pyrimidin-5-yl)-3-(1H-pyrrolo[3,2-c]pyridin-2-yl)-1H-pyrazolo[4,3-b]pyridine]",2570 nM,1110 nM,–,–
"CN(C)Cc1cncc(-c2ccc3[nH]nc(-c4cc5cnccc5[nH]4)c3n2)c1 [Compound 265, 1-(5-(3-(1H-Pyrrolo[3,2-c]pyridin-2-yl)-1H-pyrazolo[4,3-b]pyridin-5-yl)pyridin-3-yl)-N,N-dimethylmethanamine]",3120 nM,866 nM,–,–
"O=C(Nc1cncc(-c2ccc3[nH]nc(-c4cc5c(-c6ccccc6F)nccc5[nH]4)c3n2)c1)C1CC1 [Compound 76, N-(5-(3-(4-(2-Fluorophenyl)-1H-pyrrolo[3,2-c]pyridin-2-yl)-1H-pyrazolo [4,3-b]pyridin-5-yl)pyridin-3-yl)cyclopropanecarboxamide]",3520 nM,95 nM,–,–
"Cc1ccncc1-c1ccc2[nH]nc(-c3cc4c(N5CCN(C)CC5)nccc4[nH]3)c2n1 [Compound 229, 3-(4-(4-Methylpiperazin-1l-yl)-1H-pyrrolo[3,2-c]pyridin-2-yl)-5-(4-methylpyridin-3-yl)-1H-pyrazolo[4,3-b]pyridine]",949 nM,108 nM,–,–
"CC(C)CC(=O)Nc1cncc(-c2ccc3[nH]nc(-c4cc5c(N6CCN(C)CC6)nccc5[nH]4)c3n2)c1 [Compound 226, 3-Methyl-N-(5-(3-(4-(4-methylpiperazin-1-yl)-1H-pyrrolo[3,2-c]pyridin-2-yl)-1H-pyrazolo[4,3-b]pyridin-5-yl)pyridin-3-yl)butanamide]",325 nM,3140 nM,–,–
"Fc1ccccc1-c1nccc2[nH]c(-c3n[nH]c4ccc(-c5cn[nH]c5)nc34)cc12 [Compound 539, 3-(4-(2-Fluorophenyl)-1H-pyrrolo[3,2-c]pyridin-2-yl)-5-(1H-pyrazol-4-yl)-1H-pyrazolo[4,3-b]pyridine]",33 nM,103 nM,–,–
"CCNCc1cncc(-c2ccc3[nH]nc(-c4cc5cnccc5[nH]4)c3n2)c1 [Compound 258, N-((5-(3-(1H-Pyrrolo[3,2-c]pyridin-2-yl)-1H-pyrazolo[4,3-b]pyridin-5-yl)pyridin-3-yl)methyl)ethanamine]",> 10000 nM,462 nM,–,22.6%
"CS(=O)(=O)NCc1cc(F)cc(-c2nccc3[nH]c(-c4n[nH]c5ccc(-c6ccccn6)nc45)cc23)c1 [Compound 504, N-(3-Fluoro-5-(2-(5-(pyridin-2-yl)-1H-pyrazolo[4,3-b]pyridin-3-yl)-1H-pyrrolo[3,2-c]pyridin-4-yl)benzyl)methanesulfonamide]",1940 nM,> 10000 nM,0%,–
"O=C(CC1CCNCC1)Nc1cncc(-c2ccc3[nH]nc(-c4cc5c(N6CCCCC6)nccc5[nH]4)c3n2)c1 [Compound 609, N-(5-(3-(4-(Piperidin-1-yl)-1H-pyrrolo[3,2-c]pyridin-2-yl)-1H-pyrazolo[4,3-b]pyridin-5-yl)pyridin-3-yl)-2-(piperidin-4-yl)acetamide]",1080 nM,2950 nM,–,–
"CC(C)CC(=O)Nc1cncc(-c2ccc3[nH]nc(-c4cc5c(-c6ccccc6F)nccc5[nH]4)c3n2)c1 [Compound 58, N-(5-(3-(4-(2-Fluorophenyl)-1H-pyrrolo[3,2-c]pyridin-2-yl)-1H-pyrazolo [4,3-b]pyridin-5-yl)pyridin-3-yl)-3-methylbutanamide]",370 nM,74 nM,–,–
"Fc1ccccc1-c1nccc2[nH]c(-c3n[nH]c4ccc(-c5cncc(CNCc6ccccc6)c5)nc34)cc12 [Compound 80, N-Benzyl-1-(5-(3-(4-(2-fluorophenyl)-1H-pyrrolo[3,2-c]pyridin-2-yl)-1H-pyrazolo[4,3-b]pyridin-5-yl)pyridin-3-yl)methanamine]",1670 nM,9100 nM,–,–
"O=C(Nc1cncc(-c2ccc3[nH]nc(-c4cc5c(-c6ccc(F)cc6)nccc5[nH]4)c3n2)c1)c1ccccc1 [Compound 39, N-(5-(3-(4-(4-Fluorophenyl)-1H-pyrrolo[3,2-c]pyridin-2-yl)-1H-pyrazolo [4,3-b]pyridin-5-yl)pyridin-3-yl)benzamide]",302 nM,> 10000 nM,3.3%,–
"Fc1ccccc1-c1nccc2[nH]c(-c3n[nH]c4ccc(-c5cncnc5)nc34)cc12 [Compound 83, 3-(4-(2-Fluorophenyl)-1H-pyrrolo[3,2-c]pyridin-2-yl)-5-(pyrimidin-5-yl)-1H-pyrazolo[4,3-b]pyridine]",> 10000 nM,61 nM,–,0%
"CN1CCN(c2nccc3[nH]c(-c4n[nH]c5ccc(-c6cncnc6)nc45)cc23)CC1 [Compound 251, 3-(4-(4-Methylpiperazin-1l-yl)-1H-pyrrolo[3,2-c]pyridin-2-yl)-5-(pyrimidin-5-yl)-1H-pyrazolo[4,3-b]pyridine]",1400 nM,287 nM,–,–
"c1ccc(-c2ccc3[nH]nc(-c4cc5c(N6CCCCC6)nccc5[nH]4)c3n2)nc1 [Compound 196, 3-(4-(Piperidin-1-yl)-1H-pyrrolo[3,2-c]pyridin-2-yl)-5-(pyridin-2-yl)-1H-pyrazolo[4,3-b]pyridine]",270 nM,1800 nM,–,–
"c1csc(-c2nccc3[nH]c(-c4n[nH]c5ccc(-c6ccncc6)nc45)cc23)c1 [Compound 354, 5-(Pyridin-4-yl)-3-(4-(thiophen-2-yl)-1H-pyrrolo[3,2-c]pyridin-2-yl)-1H-pyrazolo[4,3-b]pyridine]",2720 nM,> 10000 nM,43.5%,–
"FC1(F)CCN(Cc2cncc(-c3ccc4[nH]nc(-c5cc6cnccc6[nH]5)c4n3)c2)C1 [Compound 278, 5-(5-((3,3-Difluoropyrrolidin-1-yl)methyl)pyridin-3-yl)-3-(1H-pyrrolo[3,2-c]pyridin-2-yl)-1H-pyrazolo[4,3-b]pyridine]",68 nM,92 nM,–,–
